Patent publication US11051515B2, “3-acyl-benzamides and their use as herbicides” (Bayer Aktiengesellschaft, priority 2017, dated 2021)

Key:
[1] = system: HORMU; assay: Pre-emergence action against HORMU; type: in vivo, Hordeum murinum; conditions: Hordeum murinum, 504 h, Dosage 320 g/ha
In short: (§1)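 Seeds sown in sandy loam in wood-fiber pots and covered with soil. Greenhouse growth; visual damage scored after 3 weeks versus untreated controls (100% = dead, 0% = like control).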

[2] = system: LOLRI; assay: Pre-emergence action against LOLRI; type: in vivo, Lolium rigidum; conditions: Lolium rigidum, 504 h, dosage 320 g/ha, scored visually after 3 weeks vs untreated controls, read-out: Pre-emergence action against LOLRI (herbicidal activity)
In short: as §1

[3] = system: STEME; assay: Post-emergence action against STEME; type: in vivo, Stellaria media; conditions: Stellaria media, 504 h; post-emergence, dosage 80 g/ha
In short: (§2)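 Post-emergence foliar spray on greenhouse plants at the one-leaf stage, using wettable-powder or emulsion-concentrate formulations in water (600 to […], plus 0.2% wetting agent). Damage scored by eye roughly 3 weeks later against untreated plants: 0% = like control, 100% = dead.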

[4] = system: HORMU; assay: Post-emergence action against HORMU; type: in vivo, Hordeum murinum; conditions: dosage 80 g/ha
Protocol: Seeds of monocotyledonous and dicotyledonous weed and crop plants are laid out in sandy loam soil in wood-fiber pots, covered with soil and cultivated in a greenhouse under good growth conditions. 2 to 3 weeks after sowing, the test plants are treated at the one-leaf stage. The compounds of the invention, formulated in the form of wettable powders (WP) or as emulsion concentrates (EC), are then sprayed onto the green parts of the plants in the form of an aqueous suspension or emulsion at a water application rate equating to […], with addition of 0.2% wetting agent. After the test plants have been left to stand in the greenhouse under optimal growth conditions for about 3 weeks, the action of the preparations is assessed visually in comparison to untreated controls (herbicidal action in percent (%): 100% activity=the plants have died, 0% activity=like control plants). […] At the same time, inventive compounds leave Gramineae crops such as barley, wheat, rye, millet/Sorghum, corn or rice virtually undamaged when applied post-emergence, even at high active ingredient dosages. In addition, some substances are also harmless to dicotyledonous crops such as soya, cotton, oilseed rape, sugar beet or potatoes. Some of the compounds according to the invention have high selectivity and are therefore suitable for controlling unwanted vegetation in agricultural crops by the post-emergence method. The data of Tables B18 to B34 below illustrate, in an exemplary manner, the […] herbicidal action of the compounds according to the invention, the herbicidal activity being stated in percent.

[5] = system: LOLRI; assay: Post-emergence action against LOLRI; type: in vivo, Lolium rigidum; conditions: Lolium rigidum, 504 h, dosage 80 g/ha, visual assessment about 3 weeks after treatment vs untreated controls, read-out: Post-emergence action against LOLRI (herbicidal action in percent)
In short: as §2

[6] = system: AVEFA; assay: Post-emergence action against AVEFA; type: in vivo, Avena fatua; conditions: Avena fatua, 504 h; post-emergence, dosage 80 g/ha, visual assessment about 3 weeks after treatment vs untreated controls; read-out: Post-emergence action against AVEFA (herbicidal action in percent)
In short: as §2

[7] = system: AVEFA; assay: Pre-emergence action against AVEFA; type: in vivo, Avena fatua; conditions: Avena fatua, 504 h, dosage 320 g/ha, scored visually after 3 weeks vs untreated controls, read-out: Pre-emergence action against AVEFA (herbicidal activity)
In short: as §1

[8] = system: POLCO; assay: Pre-emergence action against POLCO; type: in vivo, Polygonum convolvulus; conditions: Fallopia convolvulus, 504 h; Dosage 320 g/ha, pre-emergence
In short: as §1

[9] = system: VERPE; assay: Pre-emergence action against VERPE; type: in vivo, Veronica persica; conditions: Veronica persica, 504 h; Dosage 320 g/ha, pre-emergence
In short: as §1

[10] = system: ABUTH; assay: Pre-emergence action against ABUTH; type: in vivo, Abutilon theophrasti; conditions: Abutilon theophrasti, 504 h; pre-emergence, dosage 320 g/ha, scored visually after 3 weeks vs untreated controls; read-out: Pre-emergence action against ABUTH (herbicidal activity)
In short: as §1

[11] = system: VIOTR; assay: Post-emergence action against VIOTR; type: in vivo, Viola tricolor; conditions: Viola tricolor, 504 h; post-emergence, dosage 80 g/ha
In short: as §2

[12] = system: DIGSA; assay: Pre-emergence action against DIGSA; type: in vivo, Digitaria sanguinalis; conditions: dosage 320 g/ha, scored visually after 3 weeks vs untreated controls
In short: as §1

[13] = system: DIGSA; assay: Post-emergence action against DIGSA; type: in vivo, Digitaria sanguinalis; conditions: dosage 80 g/ha, visual assessment about 3 weeks after treatment vs untreated controls
In short: as §2

[14] = system: LOLMU; assay: Pre-emergence action against LOLMU; type: in vivo, Lolium multiflorum; conditions: Lolium multiflorum, 504 h, dosage 320 g/ha, scored visually after 3 weeks vs untreated controls, read-out: Pre-emergence action against LOLMU (herbicidal activity)
In short: as §1

[15] = system: LOLMU; assay: Post-emergence action against LOLMU; type: in vivo, Lolium multiflorum; conditions: Lolium multiflorum, 504 h, dosage 80 g/ha, visual assessment about 3 weeks after treatment vs untreated controls, read-out: Post-emergence action against LOLMU (herbicidal action in percent)
In short: as §2

| SMILES | pest or weed control at 320 g/ha [1] [%] | pest or weed control at 320 g/ha [2] [%] | pest or weed control at 80 g/ha [3] [%] | Post-emergence action against HORMU [4] | pest or weed control at 80 g/ha [5] [%] | pest or weed control at 80 g/ha [6] [%] | pest or weed control at 320 g/ha [7] [%] | pest or weed control at 320 g/ha [8] [%] | pest or weed control at 320 g/ha [9] [%] | pest or weed control at 320 g/ha [10] [%] | pest or weed control at 80 g/ha [11] [%] | Pre-emergence action against DIGSA (herbicidal activity) [12] [%] | Post-emergence action against DIGSA (herbicidal action in percent) [13] [%] | pest or weed control at 320 g/ha [14] [%] | pest or weed control at 80 g/ha [15] [%] |
| --- | --- | --- | --- | --- | --- | --- | --- | --- | --- | --- | --- | --- | --- | --- | --- |
| CCn1nnnc1NC(=O)c1ccc(C(F)(F)F)c(C(=O)C2CC2)c1C [2-18, 3-(cyclopropylcarbonyl)-N-(1-ethyl-1H-tetrazol-5-yl)-2-methyl-4-(trifluoromethyl)benzamide] | 100 | 100 | 100 | 100 | 100 | 100 | 100 | 90 | 100 | 100 | 100 |  |  |  |  |
| CCC(=O)c1c(C(F)F)ccc(C(=O)Nc2nnnn2C)c1Cl [1-165] | 90 | 100 | 100 |  | 80 | 90 | 100 | 90 | 100 | 100 | 90 | 100 | 100 |  |  |
| CSc1c(C(=O)Nc2nnnn2C)ccc(C(F)(F)F)c1C(=O)C1CC1 [1-60] | 100 | 100 | 100 | 100 | 100 | 100 | 100 | 100 | 100 | 100 | 90 |  |  |  |  |
| CSc1c(C(=O)Nc2nnnn2C)ccc(C(F)(F)F)c1C(C)=O [1-58] |  |  | 100 |  |  | 100 | 100 | 100 | 100 | 100 | 100 |  |  | 90 | 80 |
| CC(=O)c1c(C(F)F)ccc(C(=O)Nc2nnnn2C)c1Cl [1-164] | 90 | 100 | 90 |  | 90 | 80 | 100 | 100 | 100 | 100 | 100 |  |  |  |  |
| COc1c(C(=O)Nc2nnnn2C)ccc(C(F)(F)F)c1C(=O)C1CC1 [1-50] |  |  | 100 |  |  | 100 | 100 | 90 | 100 | 100 | 100 |  |  | 100 | 90 |
